Experimental data published in patent US4472573A, “Nitrosourea derivative and process for preparing same” (Tanabe Seiyaku Co., Ltd., priority 1981, dated 1984).

Assays:
[1] = Preventive effect against the growth of Ehrlich ascites carcinoma (Method A); format: in vivo, ICR mice; conditions: mouse, in vivo, ip; maximum dose showing 100% inhibition without causing death; i.p., once a day for 5 days; read-out: MTD (Maximum Tolerated Dose)
Method: (§1) (A) Preventive Effect Against the Growth of Ehrlich Ascites Tumor
(§2) 10^6 tumor cells of Ehrlich ascites carcinoma were inoculated intraperitoneally into a group of five femal mice (ICR mice, body weight: 19-23 g). A test compound was dissolved in a physiological saline solution (In the case where CCNU was employed as the test compound, said compound was suspended in a physiological saline solution containing 0.1% NIKKOL HCO-60 (trademark; a surface active agent manufactured by Nikko Chemicals Co. Ltd.)) and administered intraperitoneally to the mice. The administration of the test compound was begun 24 hours after the inoculation of the tumor cells and performed once a day for 5 days. The volume of ascites in the treated mice were measured after 7 days of the experiment.
(§3) ^(a) T = the average volume of ascites in the treated mice
(§4) C = the average volume of ascites in the untreated mice (control group of
(§5) 100% inhibition for the growth of Ehrlich ascites tumor in mice without
(§6) 100% inhibition for the growth of said ascites tumor)
(§7) ^(e) Therapeutic index = MTD / MED
(§8) *the number of mice died / the number of mice used

[2] = system: Ehrlich ascites carcinoma; test: as above; format: in vivo, ICR mice; conditions: for Inhibition ratio / Toxicity / the number of mice died / the number of mice used / minimal effective dose: once a day for 5 days; for Therapeutic index: MTD / MED; for minimal effective dose: Mus musculus, Ehrlich, ip, 120 h, minimum dose showing 100% inhibition, i.p., read-out: MED (Minimum Effective Dose)
Method: as §1, §2, §3, §4, §5, §6, §7, §8

Leukemia L-1210 = test: Effect on life span of mice implanted with Leukemia L-1210 (Method B); format: in vivo, BDF1 mice; conditions: once a day for 5 days; for 60-day survivors: survived for 60 days / used
Method: (B) Effect on the Life Span of Mice Implanted with Leukemic Cells of L-1210
10^5 leukemic cells of L-1210 were inoculated intraperitoneally into a group of four male mice (BDF1 mice, body weight: 19-23 g). A test compound was dissolved in a physiological saline solution and administered intraperitoneally to the mice. The administration of the test compound was begun 24 hours after the inoculation of the leukemic cells and performed once a day for 5 days. The survival days of the treated mice were observed.
^(a) T = the mean survival days of the treated mice
C = the mean survival days of the untreated mice (control group of mice)
^(c) 60day survivors = the number of mice survived for 60 days / the […]

leukemic cells = conditions: Japanese Patent Publication (unexamined) No. 141815/1976; cited from earlier work
lymphoid leukemia L-1210 = conditions: U.S. Pat. No. 4,086,415; cited from earlier work

Row | Compound | MTD [1] | Inhibition ratio ([2]; 0.39 mg/kg/day i.p.) | Inhibition ratio ([2]; 0.78 mg/kg/day i.p.) | Therapeutic index [2] | minimal effective dose [2] | Toxicity ([2]; 100 mg/kg/day i.p.) | the number of mice died / the number of mice used ([2]; 100 mg/kg/day i.p.) | ILS (Leukemia L-1210; 12.5 mg/kg/day i.p.) | 60-day survivors (Leukemia L-1210; 12.5 mg/kg/day i.p.) | ILS (Leukemia L-1210; 25 mg/kg/day i.p.) | 60-day survivors (Leukemia L-1210; 25 mg/kg/day i.p.) | ILS (Leukemia L-1210; 50 mg/kg/day i.p.) | 60-day survivors (Leukemia L-1210; 50 mg/kg/day i.p.) | Inhibition ratio ([2]; 3.12 mg/kg/day i.p.) | Inhibition ratio ([2]; 12.5 mg/kg/day i.p.) | Inhibition ratio ([2]; 50 mg/kg/day i.p.) | other results
1 | CO[C@H]1O[C@H](CO)[C@@H](O)[C@H](O)[C@H]1N(C)C(=O)N(CCCl)N=O [Compound 5, 1-(2-chloroethyl)-1-nitroso-3-methyl-3-(methyl α-D-glucopyranosid-2-yl)urea] | 100 mg/kg/day | 9.8% | 100% | 128 | 0.78 mg/kg/day |  |  |  |  |  |  |  |  |  |  |  | Inhibition ratio ([2]; 1.56 mg/kg/day i.p.): 100%; Inhibition ratio ([2]; 6.25 mg/kg/day i.p.): 100%; Inhibition ratio ([2]; 25 mg/kg/day i.p.): 100%; Inhibition ratio ([2]; 100 mg/kg/day i.p.): 100%; Toxicity ([2]; 200 mg/kg/day i.p.): Toxic; the number of mice died / the number of mice used ([2]; 200 mg/kg/day i.p.): 5/5
2 | O=NN(CCCl)C(=O)NC1CCCCC1 [CCNU, 1-(2-chloroethyl)-1-nitroso-3-cyclohexylurea, reference compound] |  |  |  | 4 | 12.5 mg/kg/day | Toxic | 5/5 |  |  |  |  |  |  |  |  |  | 
3 | CO[C@H]1O[C@H](CO)[C@@H](O)[C@H](O)[C@H]1N(CC(C)C)C(=O)N(CCCl)N=O [Compound 3, 1-(2-chloroethyl)-1-nitroso-3-isobutyl-3-(methyl α-D-glucopyranosid-2-yl)urea] | 50 mg/kg/day | 45.7% | 100% | 64 | 0.78 mg/kg/day | Toxic | 4/5 | 114.9% | 0/4 | > 689.5% | 4/4 | > 689.5% | 4/4 | 100% | 100% | 100% | 
4 | COCCN(C(=O)N(CCCl)N=O)[C@H]1[C@@H](OC)O[C@H](CO)[C@@H](O)[C@@H]1O [Compound 4, 1-(2-chloroethyl)-1-nitroso-3-(2-methoxyethyl)-3-(methyl α-D-glucopyranosid-2-yl)urea] | 50 mg/kg/day | 100% | 100% | 128 | 0.39 mg/kg/day | Toxic | 3/5 | > 243.8% | 1/4 | > 650.0% | 4/4 | > 650.0% | 4/4 | 100% | 100% | 100% | ILS (Leukemia L-1210; 6.25 mg/kg/day i.p.): 93.8%; 60-day survivors (Leukemia L-1210; 6.25 mg/kg/day i.p.): 0/4; Inhibition ratio ([2]; 0.19 mg/kg/day i.p.): 69.6%
5 | CCCN(C(=O)N(CCCl)N=O)[C@H]1[C@@H](OC)O[C@H](CO)[C@@H](O)[C@@H]1O [Compound 2, 1-(2-chloroethyl)-1-nitroso-3-n-propyl-3-(methyl α-D-glucopyranosid-2-yl)urea] | 50 mg/kg/day | 15.2% | 100% | 64 | 0.78 mg/kg/day | Toxic | 2/5 | > 366.3% | 2/4 | > 650.0% | 4/4 | > 650.0% | 4/4 | 100% | 100% | 100% | ILS (Leukemia L-1210; 6.25 mg/kg/day i.p.): 78.8%; 60-day survivors (Leukemia L-1210; 6.25 mg/kg/day i.p.): 0/4
6 | O=NN(CCCl)C(=O)N[C@@H]1O[C@H](CO)[C@@H](O[C@@H]2O[C@H](CO)[C@H](O)[C@H](O)[C@H]2O)[C@H](O)[C@H]1O [1-(2-chloroethyl)-1-nitroso-3-β-(D-lactosyl)urea] |  |  |  |  |  |  |  |  |  |  |  |  |  |  |  |  | anti-tumor activity against leukemic cells (leukemic cells): show anti-tumor activity against leukemic cells
7 | CCCCN(C(=O)N(CCCl)N=O)[C@H]1[C@@H](OC)O[C@H](CO)[C@@H](O)[C@@H]1O [Compound 1, 1-(2-chloroethyl)-1-nitroso-3-n-butyl-3-(methyl α-D-glucopyranosid-2-yl)urea] | 100 mg/kg/day |  | 34.1% | 64 | 1.56 mg/kg/day |  |  |  |  |  |  |  |  |  |  |  | Inhibition ratio ([2]; 1.56 mg/kg/day i.p.): 100%; Inhibition ratio ([2]; 6.25 mg/kg/day i.p.): 100%; Inhibition ratio ([2]; 25 mg/kg/day i.p.): 100%; Inhibition ratio ([2]; 100 mg/kg/day i.p.): 100%; Toxicity ([2]; 200 mg/kg/day i.p.): Toxic
8 | O=NN(CCCl)C(=O)N[C@@H]1O[C@H](CO)[C@@H](O)[C@H](O)[C@@H]1O [1-(2-chloroethyl)-1-nitroso-3-β-(D-mannopyranosyl)urea] |  |  |  |  |  |  |  |  |  |  |  |  |  |  |  |  | life span of mice implanted with L-1210 (lymphoid leukemia L-1210): increase the life span of mice
9 | O=NN(CCCl)C(=O)N[C@@H]1O[C@H](CO)[C@@H](O)[C@H](O)[C@H]1O [GANU, 1-(2-chloroethyl)-1-nitroso-3-(β-D-glucopyranosyl)urea, reference compound] | 12.5 mg/kg/day |  |  | 32 | 0.39 mg/kg/day |  |  |  |  |  |  |  |  |  | 100% |  | Toxicity ([2]; 25 mg/kg/day i.p.): Toxic; the number of mice died / the number of mice used ([2]; 25 mg/kg/day i.p.): 5/5; life span of mice implanted with L-1210 (lymphoid leukemia L-1210): increase the life span of mice
10 | O=NN(CCCl)C(=O)N[C@@H]1O[C@H](CO)[C@@H](O[C@H]2O[C@H](CO)[C@@H](O)[C@H](O)[C@H]2O)[C@H](O)[C@H]1O [1-(2-chloroethyl)-1-nitroso-3-β-(D-maltosyl)urea] |  |  |  |  |  |  |  |  |  |  |  |  |  |  |  |  | anti-tumor activity against leukemic cells (leukemic cells): show anti-tumor activity against leukemic cells
